How the values were obtained:
Aqueous solubility = type: physicochemical; conditions: water
[1] = Pharmacokinetics after IV or oral administration in rat; type: in vivo, SD rat; conditions: for AUC(0-inf) / Cmax / Tmax / half-life / bioavailability: male, Sprague-Dawley, plasma
Text: (§1) The pharmacokinetics of compounds of the invention were compared in mouse, rat and dog by either intravenous or oral administration in various formulations including drug powder in capsules or in combination with generally recognized as safe (GRAS) excipients. After administration in animals, blood samples were collected at the appropriate time points and plasma was obtained for bioanalysis. Compounds were extracted by protein precipitation and analyzed by LC-UV or LC-MS/MS. PK analysis was performed by noncompartmental analysis using WinNonlin. Oral bioavailability (% F) was calculated based on AUC of Compound 1.
(§2) Blood was collected into heparinized tubes that contained dithioreitol (DTT; ˜2 mg/mL) at each time point. After centrifugation plasma was transferred to a new tube that contained DMSO (Plasma:DMSO ration 2:1 for rat/mouse, 9:1 for dog).
(§3) The pharmacokinetic parameters for compounds of the invention were determined from the plasma concentration data using the Noncompartmental Analysis module in WinNonlin, version 5.0 (Pharsight Corporation).

[2] = Pharmacokinetics after IV or oral administration in mouse; type: in vivo; conditions: female, plasma, CD-1 mouse F
Text: as §1, §2, §3

[3] = Pharmacokinetics after IV or oral administration in dog; type: in vivo; conditions: Beagle dog M; for AUC(0-inf) / Cmax / Tmax / half-life / bioavailability: male, plasma
Text: as §1, §2, §3

[4] = rat, iv, 25 mg/kg, SD rat M, IV bolus, EES (sol'n)
[5] = rat, iv, 50 mg/kg, SD rat M, IV bolus, Phospholipid
[6] = rat, iv, 80 mg/kg, SD rat M, IV bolus, HP-β-CD/saline
[7] = rat, iv, 80 mg/kg, SD rat M, IV bolus, Lyophilized HP-β-CD/saline
[8] = rat, other: PI, 80 mg/kg, SD rat M, route PI, Lyophilized HP-β-CD/saline, 80 mg/kg
[9] = rat, po, 50 mg/kg, SD rat M, 0.5% MC (suspension)
[10] = rat, po, 50 mg/kg, SD rat M, Phospholipid
[11] = rat, po, 50 mg/kg, SD rat M, TPGS/PEG400 (sol'n)
[12] = rat, po, 50 mg/kg, SD rat M, nanoparticles (colloidal dispersion)
[13] = rat, po, 80 mg/kg, SD rat M, HP-β-CD/saline
[14] = rat, PO, nanoparticles (colloidal dispersion) vs 0.5% methylcellulose suspension
[15] = IV bolus, EES (sol'n), 10 mg/kg
[16] = PO, TPGS/PEG400 (sol'n), 100 mg/kg
[17] = beagle, dog, iv, 10 mg/kg, 1 h IV infusion, EES (sol'n)
[18] = beagle, dog, po, 50 mg/kg, TPGS/PEG400 (sol'n)
[19] = beagle, dog, po, 50 mg/kg, capsule (powder), 50 mg/kg as Compound 1 (free acid)
[20] = beagle, dog, po, 50 mg/kg, nanoparticles (colloidal dispersion)
[21] = rat, po, 50 mg/kg, SD rat M, capsule (powder), 50 mg/kg as Compound 1 (free acid)
[22] = rat, iv, 25 mg/kg, SD rat M, IV bolus, Saline
[23] = rat, po, 50 mg/kg, SD rat M, Saline
[24] = PO, capsule (powder), 50 mg/kg as Compound 1 (free acid)

## CN(NC(=O)CC(=O)NN(C)C(=S)c1ccccc1)C(=S)c1ccccc1 [Compound 1]
Aqueous solubility
  solubility: < 0.1 mg/mL
[1]; [4]
  AUC(0-inf): 9270 ng·h/mL
  Cmax: 29000 ng/mL
  Tmax: 4.98 min
  half-life: 102 min
[1]; [5]
  AUC(0-inf): 29700 ng·h/mL
  Cmax: 95300 ng/mL
  Tmax: 4.98 min
  half-life: 54 min
[1]; [6]
  AUC(0-inf): 23700 ng·h/mL
  Cmax: 58800 ng/mL
  Tmax: 4.98 min
  half-life: 48 min
[1]; [7]
  AUC(0-inf): 25700 ng·h/mL
  Cmax: 63800 ng/mL
  Tmax: 4.98 min
  half-life: 24 min
[1]; [8]
  AUC(0-inf): 5190 ng·h/mL
  Cmax: 2550 ng/mL
  Tmax: 15 min
  bioavailability: 21.3%
  half-life: 138 min
[1]; [9]
  AUC(0-inf): 1220 ng·h/mL
  Cmax: 280 ng/mL
  Tmax: 30 min
  half-life: 192 min
[1]; rat, po, 50 mg/kg, SD rat M, 0.5% MC (suspension), reference Compound 1 IV bolus
  bioavailability: 6.6%
[1]; [10]
  AUC(0-inf): 3790 ng·h/mL
  Cmax: 2050 ng/mL
  Tmax: 15 to 30 min
  bioavailability: 8.8%
  half-life: 54 min
[1]; [11]
  AUC(0-inf): 2770 ng·h/mL
  Cmax: 1410 ng/mL
  Tmax: 18 min
  half-life: 126 min
[1]; rat, po, 50 mg/kg, SD rat M, TPGS/PEG400 (sol'n), reference Compound 1 IV bolus
  bioavailability: 14.9%
[1]; [12]
  AUC(0-inf): 2370 ng·h/mL
  Cmax: 1070 ng/mL
  Tmax: 18 min
  half-life: 186 min
[1]; rat, po, 50 mg/kg, SD rat M, nanoparticles (colloidal dispersion), reference Compound 1 IV bolus
  bioavailability: 12.8%
[1]; [13]
  AUC(0-inf): 4330 ng·h/mL
  Cmax: 2210 ng/mL
  Tmax: 15 to 30 min
  bioavailability: 17.5%
  half-life: 72 min
[1]; [14]
  AUC after nanoparticles compared with the suspension: higher
  Cmax after nanoparticles compared with the suspension: higher
[2]; [15]
  AUC(0-inf): 3950 ng·h/mL
  Cmax: 6500 ng/mL
  Tmax: 4.98 min
  half-life: 54 min
[2]; [16]
  AUC(0-inf): 8640 ng·h/mL
  Cmax: 12400 ng/mL
  Tmax: 15 min
  half-life: 60 min
[2]; PO, TPGS/PEG400 (sol'n), 100 mg/kg, reference Compound 1 IV bolus
  bioavailability: 21.9%
[3]; [17]
  AUC(0-inf): 25800 ng·h/mL
  Cmax: 11600 ng/mL
  Tmax: 60 min
  half-life: 72 min
[3]; [18]
  AUC(0-inf): 87500 ng·h/mL
  Cmax: 38100 ng/mL
  Tmax: 24 min
  half-life: 132 min
[3]; beagle, dog, po, 50 mg/kg, TPGS/PEG400 (sol'n), reference Compound 1 IV infusion
  bioavailability: 68%
[3]; [19]
  AUC(0-inf): 6520 ng·h/mL
  Cmax: 1330 ng/mL
  Tmax: 120 min
  half-life: 150 min
[3]; beagle, dog, po, 50 mg/kg, capsule (powder), 50 mg/kg as Compound 1 (free acid), reference Compound 1 IV infusion, based on AUC of Compound 1
  bioavailability: < 5%
[3]; [20]
  AUC(0-inf): 57500 ng·h/mL
  Cmax: 16800 ng/mL
  Tmax: 48 min
  half-life: 288 min
[3]; beagle, dog, po, 50 mg/kg, nanoparticles (colloidal dispersion), reference Compound 1 IV infusion
  bioavailability: 44.6%

## CN(/N=C(\[O-])C/C([O-])=N/N(C)C(=S)c1ccccc1)C(=S)c1ccccc1.[Na+].[Na+] [Compound 19]
Aqueous solubility
  solubility: ~50 mg/mL
[1]; SD rat M, PO, capsule (powder), 50 mg/kg as Compound 1 (free acid), reference Compound 1 IV bolus, based on AUC of Compound 1, 50 mg/kg
  % F: 7.5%
[1]; [21]
  AUC(0-inf): 1410 ng·h/mL
  Cmax: 640 ng/mL
  Tmax: 36 min
  half-life: 234 min
[1]; rat, po, 50 mg/kg, SD rat M, capsule (powder), 50 mg/kg as Compound 1 (free acid), reference Compound 1 IV bolus, based on AUC of Compound 1
  bioavailability: 5.7%
[3]; PO, capsule (powder), 50 mg/kg as Compound 1 (free acid), reference Compound 1 IV infusion, based on AUC of Compound 1, 50 mg/kg
  % F: 80.2%
[3]; [19]
  AUC(0-inf): 103000 ng·h/mL
  Cmax: 40400 ng/mL
  Tmax: 48 min
  half-life: 126 min

## CN(NC(=O)CC(=O)NN(C)C(=S)c1ccccc1)C(=S)c1ccccc1 [Compound 22]
[1]; SD rat M, PO, Saline, 50 mg/kg
  bioavailability: 10.5%
[1]; [22]
  AUC(0-inf): 11600 ng·h/mL
  Cmax: 39100 ng/mL
  half-life: 222 min
[1]; [23]
  AUC(0-inf): 4760 ng·h/mL
  Cmax: 2400 ng/mL
  Tmax: 37.8 min
  half-life: 150 min

## CN(NC(=O)CC(=O)NN(C)C(=S)c1ccccc1)C(=S)c1ccccc1 [Compound 26]
[1]; [21]
  AUC(0-inf): 1080 ng·h/mL
  Cmax: 250 ng/mL
  Tmax: 54 min
  half-life: 222 min
[3]; [24]
  AUC(0-inf): 45600 ng·h/mL
  Cmax: 19700 ng/mL
  Tmax: 60 min
  half-life: 180 min
